# Measurements as given in patent publication US8420657B2 (Novartis AG, priority 2008, dated 2013).
# Experiments:
# GST-JAK2(808-1132) = biological target: T1, GST-JAK2(808-1132) (Homo sapiens, UniProt O60674); assay: JAK2 kinase assay (Caliper mobility shift, LabChip 3000); type: biochemical
# T1 construct: GST-JAK2(808-1132); purchased Invitrogen (Carlsbad, USA) #4288
# In short: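 Eight-point compound series (final 10–0.003 μM) tested on purchased GST-JAK2 kinase domain (808-1132). Peptide FITC-JAK3tide plus ATP reacted 60 min, 30 °C, then quenched with EDTA; turnover from charge-based separation of substrate and product.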
# [1] = test system: JAK2-dependent nuclear translocation of STAT5-GFP in U-2 OS osteosarcoma cells; assay: STAT5 nuclear translocation assay (Cellomics), rhEpo stimulated U-2 OS STAT5-GFP cells; type: cell-based; conditions: STAT5 translocation pathway
# In short: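 U-2 OS cells stably expressing STAT5a-GFP and EpoR pre-treated with compound (final 10 μM to 0.003 μM, 0.1% DMSO) for 30 min at 37° C., then stimulated 1 h with 5 U/ml rhEpo. Nuclear-cytoplasmic GFP differential quantified by automated imaging (≥1000 cells/well, Hoechst nuclear mask). IC50 from % translocation normalized to untreated and DMSO-stimulated controls.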
# T1 sequence (O60674 808-1132): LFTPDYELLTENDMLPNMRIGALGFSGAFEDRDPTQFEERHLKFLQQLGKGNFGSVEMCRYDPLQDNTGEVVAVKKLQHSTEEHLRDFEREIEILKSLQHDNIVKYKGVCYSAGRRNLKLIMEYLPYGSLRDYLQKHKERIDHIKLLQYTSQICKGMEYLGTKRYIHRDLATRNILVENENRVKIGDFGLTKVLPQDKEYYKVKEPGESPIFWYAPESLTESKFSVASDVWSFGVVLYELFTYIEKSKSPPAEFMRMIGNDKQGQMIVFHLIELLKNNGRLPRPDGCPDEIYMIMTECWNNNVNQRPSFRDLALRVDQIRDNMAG
IC50 (GST-JAK2(808-1132)) [nM],"IC50 ([1]; Homo sapiens, U2OS) [nM]",IC50 [1] [nM],Compound
< 3,0.2,–,"Fc1cc(-n2ccc3cnc(Nc4cccc([C@H]5COCCN5)c4)nc32)cc(F)c1CN1CCOCC1 [Example 507, [7-(3,5-Difluoro-4-morpholin-4-ylmethyl-phenyl)-7H-pyrrolo[2,3-d]pyrimidin-2-yl]-((S)-3-morpholin-3-yl-phenyl)-amine]"
3.5,31.5,–,"Fc1cc(-n2ccc3cnc(Nc4ccc(CN5CCC(F)(F)C5)cc4)nc32)cc(F)c1CN1CCOCC1 [Example 471, [7-(3,5-Difluoro-4-morpholin-4-ylmethyl-phenyl)-7H-pyrrolo[2,3-d]pyrimidin-2-yl]-[4-(3,3-difluoro-pyrrolidin-1-ylmethyl)-phenyl]-amine]"
≤ 3,1.6,–,"Cc1ccc(Nc2ncc3ccn(-c4cc(F)c(CN5CCOCC5)c(F)c4)c3n2)cc1CN1CC(O)C1 [Example 394, 1-{5-[7-(3,5-Difluoro-4-morpholin-4-ylmethyl-phenyl)-7H-pyrrolo[2,3-d]pyrimidin-2-ylamino]-2-methyl-benzyl}-azetidin-3-ol]"
≤ 3,38,–,"Fc1cc(-n2ccc3cnc(Nc4ccc(C5CCNCC5)nc4)nc32)cc(F)c1CN1CCOCC1 [Example 501, [7-(3,5-Difluoro-4-morpholin-4-ylmethyl-phenyl)-7H-pyrrolo[2,3-d]pyrimidin-2-yl]-(1,2′,3′,4′,5′,6′-hexahydro-[2,4′]bipyridinyl-5-yl)-amine]"
3.7,5.3,–,"Cc1ccc(Nc2ncc3ccn(-c4cc(F)c(CN5CCOCC5)c(F)c4)c3n2)cc1CN1C[C@@H](C)N[C@@H](C)C1 [Example 355, [7-(3,5-Difluoro-4-morpholin-4-yl methyl-phenyl)-7H-pyrrolo[2,3-d]pyrimidin-2-yl]-[3-(cis-3,5-dimethyl-piperazin-1-ylmethyl)-4-methyl-phenyl]-amine]"
6.5,7.7,–,"CC(C)S(=O)(=O)Nc1ccc(-n2ccc3cnc(Nc4ccc(N5C[C@@H](C)N[C@@H](C)C5)nc4)nc32)cc1 [Example 375, Propane-2-sulfonic acid (4-{2-[6-(cis-3,5-dimethyl-piperazin-1-yl)-pyridin-3-ylamino]-pyrrolo[2,3-d]pyrimidin-7-yl}-phenyl)-amide]"
23,260,–,"CN1CCN(C(=O)c2cc(Nc3ncc4ccn(-c5cc(F)c(CN6CCOCC6)c(F)c5)c4n3)ccn2)CC1 [Example 361, {4-[7-(3,5-Difluoro-4-morpholin-4-ylmethyl-phenyl)-7H-pyrrolo[2,3-d]pyrimidin-2-ylamino]-pyridin-2-yl}-(4-methyl-piperazin-1-yl)-methanone]"
≤ 3,5.8,–,"Cc1cc(Nc2ncc3ccn(-c4cc(F)c(CN5CCOCC5)c(F)c4)c3n2)cnc1N1CCNCC1 [Example 487, [7-(3,5-Difluoro-4-morpholin-4-ylmethyl-phenyl)-7H-pyrrolo[2,3-d]pyrimidin-2-yl]-(5-methyl-6-piperazin-1-yl-pyridin-3-yl)-amine]"
≤ 3,6.9,–,"Cc1ccc(Nc2ncc3ccn(-c4cc(F)c(CN5CCOCC5)c(F)c4)c3n2)cc1CN1CCN(C)CC1=O [Example 415, 1-{5-[7-(3,5-Difluoro-4-morpholin-4-ylmethyl-phenyl)-7H-pyrrolo[2,3-d]pyrimidin-2-ylamino]-2-methyl-benzyl}-4-methyl-piperazin-2-one]"
≤ 3,26.5,–,"Cc1ccc(Nc2ncc3ccn(-c4cc(F)c(CN5CCOCC5)c(F)c4)c3n2)cc1Cn1ccnc1 [Example 412, [7-(3,5-Difluoro-4-morpholin-4-ylmethyl-phenyl)-7H-pyrrolo[2,3-d]pyrimidin-2-yl]-(3-imidazol-1-ylmethyl-4-methyl-phenyl)-amine]"
2.2,55.5,–,"CC1(C)NCCN(c2ccc(Nc3ncc4ccn(-c5cc(F)c(CN6CCOCC6)c(F)c5)c4n3)cn2)C1=O [Example 492, 1-{5-[7-(3,5-Difluoro-4-morpholin-4-ylmethyl-phenyl)-7H-pyrrolo[2,3-d]pyrimidin-2-ylamino]-pyridin-2-yl}-3,3-dimethyl-piperazin-2-one]"
≤ 3,41,–,Cc1cc(Nc2ncc3ccn(-c4cc(F)c(CN5CCS(=O)(=O)CC5)c(F)c4)c3n2)cnc1N1C[C@@H](C)N[C@@H](C)C1 [Example 429]
13,135,–,"C[C@@H]1CN(C(=O)c2cc(Nc3ncc4ccn(-c5cc(F)c(CN6CCOCC6)c(F)c5)c4n3)ccn2)C[C@H](C)N1 [Example 371, {4-[7-(3,5-Difluoro-4-morpholin-4-ylmethyl-phenyl)-7H-pyrrolo[2,3-d]pyrimidin-2-ylamino]-pyridin-2-yl}-(cis-3,5-dimethyl-piperazin-1-yl)-methanone]"
≤ 3,31.3,–,"Cc1ccc(Nc2ncc3ccn(-c4cc(F)c(CN5CCOCC5)c(F)c4)c3n2)cc1CN1CCN(C=O)CC1 [Example 370, 4-{5-[7-(3,5-Difluoro-4-morpholin-4-ylmethyl-phenyl)-7H-pyrrolo[2,3-d]pyrimidin-2-ylamino]-2-methyl-benzyl}-piperazine-1-carbaldehyde]"
17,718,–,"C[C@@H]1CN(Cc2ccc(Nc3ncc4ccn(-c5cc(F)c(CN6CCOCC6)c(F)c5)c4n3)c(F)c2)C[C@H](C)N1 [Example 477, [7-(3,5-Difluoro-4-morpholin-4-ylmethyl-phenyl)-7H-pyrrolo[2,3-d]pyrimidin-2-yl]-[4-(cis-3,5-dimethyl-piperazin-1-ylmethyl)-2-fluoro-phenyl]-amine]"
≤ 3,81.5,–,"CN1CCN(c2cc(Nc3ncc4ccn(-c5cc(F)c(CN6CCOCC6)c(F)c5)c4n3)ccn2)CC1=O [Example 504, 4-{4-[7-(3,5-Difluoro-4-morpholin-4-ylmethyl-phenyl)-7H-pyrrolo[2,3-d]pyrimidin-2-ylamino]-pyridin-2-yl}-1-methyl-piperazin-2-one]"
25,–,1320,"[6-Azetidin-3-yloxy)-pyridin-3-yl]-[7-(3,5-difluoro-4-morpholin-4-ylmethyl-phenyl)-7H-pyrrolo[2,3-d]pyrimidin-2-yl]-amine [Example 514]"
≤ 3,39.5,–,"OCCOc1ccc(Nc2ncc3ccn(-c4cc(F)c(CN5CCOCC5)c(F)c4)c3n2)cn1 [Example 518, 2-{5-[7-(3,5-Difluoro-4-morpholin-4-ylmethyl-phenyl)-7H-pyrrolo[2,3-d]pyrimidin-2-ylamino]-pyridin-2-yloxy}-ethanol]"
8.6,65,–,"Cc1ccc(Nc2ncc3ccn(-c4ccc(C(=O)N5CCOCC5)c(F)c4)c3n2)cc1CN1CCN(C2CC2)CC1 [Example 366, (4-{2-[3-(4-Cyclopropyl-piperazin-1-ylmethyl)-4-methyl-phenylamino]-pyrrolo[2,3-d]pyrimidin-7-yl}-2-fluoro-phenyl)-morpholin-4-yl-methanone]"
3.6,60.5,–,"Fc1cc(-n2ccc3cnc(Nc4ccc(OC5CCNC5)nc4)nc32)cc(F)c1CN1CCOCC1 (racemic) [Example 519, [7-(3,5-Difluoro-4-morpholin-4-ylmethyl-phenyl)-7H-pyrrolo[2,3-d]pyrimidin-2-yl]-[6-(pyrrolidin-3-yloxy)-pyridin-3-yl]-amine]"
0.7,12,–,"C[C@@H]1CN(c2ncc(Nc3ncc4ccn(-c5cc(F)c(CN6CCOCC6)c(F)c5)c4n3)cc2Cl)C[C@H](C)N1 [Example 489, [5-Chloro-6-(cis-3,5-dimethyl-piperazin-1-yl)-pyridin-3-yl]-[7-(3,5-difluoro-4-morpholin-4-ylmethyl-phenyl)-7H-pyrrolo[2,3-d]pyrimidin-2-yl]-amine]"
≤ 3,16,–,"O=C1CN(c2cc(Nc3ncc4ccn(-c5cc(F)c(CN6CCOCC6)c(F)c5)c4n3)ccn2)CCN1 [Example 500, 4-{4-[7-(3,5-Difluoro-4-morpholin-4-ylmethyl-phenyl)-7H-pyrrolo[2,3-d]pyrimidin-2-ylamino]-pyridin-2-yl}-piperazin-2-one]"
5,7.4,–,"CN1CCN(c2ccc(Nc3ncc4ccn(-c5ccc6c(c5)CC(=O)N6C)c4n3)cn2)CC1 [Example 448, 1-Methyl-5-{2-[6-(4-methyl-piperazin-1-yl)-pyridin-3-ylamino]-pyrrolo[2,3-d]pyrimidin-7-yl}-1,3-dihydro-indol-2-one]"
4.9,150,–,"C[C@@H]1CN(Cc2cc(Nc3ncc4ccn(-c5cc(F)c(CN6CCOCC6)c(F)c5)c4n3)ccn2)C[C@H](C)N1 [Example 391, [7-(3,5-Difluoro-4-morpholin-4-ylmethyl-phenyl)-7H-pyrrolo[2,3-d]pyrimidin-2-yl]-[2-(cis-3,5-dimethyl-piperazin-1-ylmethyl)-pyridin-4-yl]-amine]"
≤ 3,104,–,"Cc1cc(Nc2ncc3ccn(-c4cc(F)c(CN5CCOCC5)c(F)c4)c3n2)cnc1N1CCNC(C)(C)C1=O [Example 493, 1-{5-[7-(3,5-Difluoro-4-morpholin-4-ylmethyl-phenyl)-7H-pyrrolo[2,3-d]pyrimidin-2-ylamino]-3-methyl-pyridin-2-yl}-3,3-dimethyl-piperazin-2-one]"
≤ 3,3.4,–,"Cc1ccc(Nc2ncc3ccn(-c4cc(F)c(CN5CCS(=O)(=O)CC5)c(F)c4)c3n2)cc1CN1CCC(N(C)C)C1 (racemic) [Example 435, [3-(3-Dimethylamino-pyrrolidin-1-ylmethyl)-4-methyl-phenyl]-{7-[4-(1,1-dioxido-thiomorpholin-4-ylmethyl)-3,5-difluoro-phenyl]-7H-pyrrolo[2,3-d]pyrimidin-2-yl}-amine]"
